This is an account of results in patent US20020010201A1 (priority 1999, published 2002).

One series concerns patients with RLS. Briefly: Treatment of 2 patients with RLS (therapeutic history, monotherapies and combination therapy of pramipexole and clonidine). Here is the method: 1. […] The clonidine was also initially prescribed in a single dose of 0.075 mg two hours before bedtime and increased by 0.075 mg at intervals of 3 days.
2. Treatment with a Combination Therapy of Clonidine and Pramipexole After slowly bringing the clonidine therapy to a complete halt and after a treatment-free period of about 1 week, both patients were treated with a combination of 0.088 mg of pramipexole and 0.075 mg of clonidine. […] After 7 days the dosage of pramipexole had been increased to 0.18 mg and the dosage of clonidine to 0.15 mg, two hours before going to sleep.

The test system of series [1] is Restless Legs Syndrome patients. Conditions: cited from earlier work; for effectiveness in RLS: short-term therapy trials of dopamine agonists.
The mark [2] stands for this setting: clonidine monotherapy, single dose before bedtime, 0.225 mg (male) / 0.45 mg (female).

As for `Cc1nnc2n1-c1sc(Br)cc1C(c1ccccc1Cl)=NC2` [Brotizolam], the “falling asleep and sleeping through” value in the series on patients with RLS (previous therapy, prescribed for limited time only) is “improved the falling asleep and sleeping through”. Consider `NC(=O)N1c2ccccc2C=Cc2ccccc21` [Carbamazepine], for which, in series [1] (a few partly open trials), the “relief from the complaint” value is listed as “only partial relief from the complaint”. Regarding `N[C@@H](Cc1ccc(O)c(O)c1)C(=O)O` [L-DOPA], in the series on patients with RLS (human, in vivo), the augmentation result was “typical augmentation during the day”. Also, the “disadvantage of therapy (loss of effectiveness, rebound, augmentation)” value in series [1] (in vivo) was “effectiveness declines and/or there is a shift of the RLS problems to the morning (rebound) or afternoon (augmentation)”. In addition, the “alleviation of the complaint” value in series [1] (long-term therapy, with improvement in quality of life and sleep) was “significant alleviation of the complaint”. For the molecule `CC(C)C[C@H]1C(=O)N2CCC[C@H]2[C@]2(O)O[C@](NC(=O)[C@@H]3C[C@@H]4c5cccc6[nH]cc(c56)C[C@H]4N(C)C3)(C(C)C)C(=O)N12` [alphadihydroergocryptine], the “effectiveness in RLS” value in series [1] was “found to be effective”. As for `C=CCN1C[C@H](C(=O)N(CCCN(C)C)C(=O)NCC)C[C@@H]2c3cccc4[nH]cc(c34)C[C@H]21` [cabergoline], the “effectiveness in RLS” value in series [1] was “found to be effective”. For `Clc1cccc(Cl)c1NC1=NCCN1` [clonidine, 2-(2,6-dichloroanilino)-4,5-dihydroimidazole], in the series on patients with RLS (setting [2]), the compulsive movements entry was “had also improved”; the paresthesia result is reported as “felt hardly any paresthesia”; the “quality of sleep and number of times they woke during the night” value is “had not changed”. Besides, the “perceived symptoms such as paresthesia, compulsive movement and tiredness during the day” value in series [1] (4 open trials, 2 double-blind placebo-controlled trials, single case study, daily doses 0.1-0.9 mg) is listed as “(statistically significant) reduction in perceived symptoms”. Moreover, the “sleep latency (polysomnographic)” value in series [1] (daily doses 0.1-0.9 mg) is on record as “shortened”. For the same molecule, the “quality of sleep, frequency of waking or periodic leg movements in sleep (PLMS)” value in series [1] (polysomnographic, daily doses 0.1-0.9 mg) was “not affected”. With `CCN(CC)C(=O)N[C@H]1C=C2c3cccc4[nH]cc(c34)C[C@H]2N(C)C1` [lisuride], the “effectiveness in RLS” value in series [1] is “found to be effective”. With `CCCN1C[C@H](CSC)C[C@@H]2c3cccc4[nH]cc(c34)C[C@H]21` [pergolide], in the series with patients with RLS (previous therapy of the 2 RLS patients), the “side effects preventing further dose increase” value is “side effects such as nausea, gastrointestinal problems and dizziness”. For the same molecule, in series [1], the “effectiveness in RLS” value is “found to be effective”.

In the case of `CCCN[C@H]1CCc2nc(N)sc2C1` [pramipexole, (S)-2-amino-6-n-propylamino-4,5,6,7-tetrahydro-benzothiazole], the symptoms entry in the series on patients with RLS (pramipexole monotherapy, 0.088 mg two hours before bedtime, increased to 0.36 mg (male) / 0.27 mg (female) daily, no difference from earlier therapy) is recorded as “symptoms certainly improved”. The “effectiveness in RLS” value in series [1] is “found to be effective”. As for `CCCN(CCC)CCc1cccc2c1CC(=O)N2` [ropinirol], in series [1], the “effectiveness in RLS” value was “found to be effective”. bromocryptine: the “effectiveness in RLS” value in series [1] is recorded as “found to be effective”.
